# Assay results: US20030186978A1, “Novel telomerase inhibitors” (priority 2000, published 2003)
# Target: telomerase enzyme (Homo sapiens, UniProt O14746)
# Assay: Flash Plate-based telomerase assay
# Assay type: biochemical
# Conditions: two hours of incubation at 37°; only indicative, obtained during screening by fitting a limited number of experimental points
# Excerpt: The telomerase activity of the compounds of the invention has been evaluated using a Flash Plate-based assay. […] Other methods for determining the inhibitory concentration of a compound of the invention against telomerase can be employed as will be apparent to a person skilled in the art based on the disclosure herein.
# Briefly, the assay mixture is costituted by:
# telomerase enzyme diluted in a buffer, the composition of which has been selected to maintain the enzyme activity stable along the duration of the assay.
# dNTPs, deoxynucleotides 5′-triphosphate.
# biotynilated oligo as primer.
# increasing concentrations of test compounds/positive control.
# After two hours of incubation at 37° degrees the telomeric repeats added are evaluated by hybridization in solution with a 3′-labeled short oligonucleotide probe. The extent of hybridization is then quantitated by transferring the reaction mixture in a streptavidin-coated flash plate, where the binding between biotin and streptavidin occurs. The telomerase activity is proportional to the radioactivity measured and the inhibitory activity of the compounds is evaluated as IC50 using the Sigma Plot fit program. With the above-described method, IC50 values of the compounds of the present invention were determined. The data reported in Table 1 are only indicative since obtained during the screening by fitting a limited number of experimental points.
# Chain of telomerase enzyme (O14746 whole entry): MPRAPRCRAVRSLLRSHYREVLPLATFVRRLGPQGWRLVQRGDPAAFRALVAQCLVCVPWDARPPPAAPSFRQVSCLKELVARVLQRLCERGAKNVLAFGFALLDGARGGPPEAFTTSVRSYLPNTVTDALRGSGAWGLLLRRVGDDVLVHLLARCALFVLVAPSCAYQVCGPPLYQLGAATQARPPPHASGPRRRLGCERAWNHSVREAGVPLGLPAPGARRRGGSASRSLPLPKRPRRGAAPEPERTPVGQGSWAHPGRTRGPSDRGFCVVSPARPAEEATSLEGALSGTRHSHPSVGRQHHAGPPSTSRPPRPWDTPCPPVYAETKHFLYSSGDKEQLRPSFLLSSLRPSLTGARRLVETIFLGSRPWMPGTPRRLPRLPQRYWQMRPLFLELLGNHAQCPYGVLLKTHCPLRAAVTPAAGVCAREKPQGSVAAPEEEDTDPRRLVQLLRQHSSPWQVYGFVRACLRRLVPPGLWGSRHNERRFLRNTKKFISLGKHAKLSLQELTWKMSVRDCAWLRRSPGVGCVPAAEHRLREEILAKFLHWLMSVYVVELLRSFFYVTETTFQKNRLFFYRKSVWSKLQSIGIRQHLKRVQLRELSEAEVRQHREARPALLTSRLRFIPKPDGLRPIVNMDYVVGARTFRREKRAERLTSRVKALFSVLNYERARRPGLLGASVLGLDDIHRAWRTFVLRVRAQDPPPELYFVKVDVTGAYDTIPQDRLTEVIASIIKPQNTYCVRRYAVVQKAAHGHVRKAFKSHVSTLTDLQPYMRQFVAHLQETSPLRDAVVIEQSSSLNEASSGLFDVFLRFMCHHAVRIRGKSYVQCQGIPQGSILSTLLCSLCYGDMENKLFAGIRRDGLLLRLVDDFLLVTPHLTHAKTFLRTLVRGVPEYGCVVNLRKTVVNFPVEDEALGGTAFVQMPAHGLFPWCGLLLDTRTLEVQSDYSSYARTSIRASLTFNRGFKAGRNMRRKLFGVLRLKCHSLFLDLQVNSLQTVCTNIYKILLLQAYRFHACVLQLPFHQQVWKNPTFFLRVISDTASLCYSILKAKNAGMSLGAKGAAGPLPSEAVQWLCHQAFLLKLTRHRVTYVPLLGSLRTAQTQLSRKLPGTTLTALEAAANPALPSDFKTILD
row,SMILES,IC50 [µM]
1,"Nc1nc(=O)c2c(ncn2Cc2ccc3ccccc3c2)n1Cc1ccc2ccccc2c1 [Compound 1, 2-amino-3,7-bis(2-naphthylmethyl)-3,7-dihydro-6H-purin-6-one]",4
2,"Nc1nc(=O)c2c(ncn2Cc2ccc(-c3ccccc3)cc2)n1Cc1ccc(-c2ccccc2)cc1 [Compound 2, 2-amino-3,7-bis-[(1,1′-biphenyl)-4-ylmethyl]-3,7-dihydro-6H-purin-6-one]",3
3,"Nc1nc(=O)c2c(ncn2Cc2ccc(-c3ccc(CCl)cc3)cc2)n1Cc1ccc(-c2ccc(CCl)cc2)cc1 [Compound 3, 2-amino-3,7-bis{[4′-(chloromethyl)[1,1′-biphenyl]-4-yl]methyl}-3,7-dihydro-6H-purin-6-one]",5
4,"Nc1nc(=O)c2c(ncn2Cc2ccc(Cl)c(Cl)c2)n1Cc1ccc(Cl)c(Cl)c1 [Compound 4, 2-amino-3,7-bis(3,4-dichlorobenzyl)-3,7-dihydro-6H-purin-6-one]",4
5,"Nc1nc(=O)c2c(ncn2Cc2ccc3ccccc3c2)n1Cc1ccc(-c2ccccc2)cc1 [Compound 5, 2-amino-3-([1,1-biphenyl]-4-ylmethyl)-7-(2-naphthylmethyl)-3,7-dihydro-6H-purin-6-one]",2
6,"Nc1nc(=O)c2c(ncn2Cc2ccc(-c3ccccc3)cc2)n1Cc1ccc2ccccc2c1 [Compound 6, 2-amino-3-(2-naphthylmethyl)-7-([1,1′-biphenyl]-4-ylmethyl)-3,7-dihydro-6H-purin-6-one]",2

# Continued, values first:
row,IC50 [µM],SMILES
1,3,"Nc1nc(=O)c2c(ncn2Cc2ccc3ccccc3c2)n1Cc1ccc(Cl)c(Cl)c1 [Compound 7, 2-amino-3 (3,4-dichlorobenzyl)-7-(2-naphthylmethyl)-3,7-dihydro-6H-purin-6-one]"
2,3,"Nc1nc(=O)c2c(ncn2Cc2ccc3ccccc3c2)n1Cc1cccc(Oc2ccccc2)c1 [Compound 8, 2-amino-3-(3-phenoxybenzyl)-7-(2-naphthylmethyl)-3,7-dihydro-6H-purin-6-one]"
3,4,"Nc1nc(=O)c2c(ncn2Cc2ccc3ccccc3c2)n1Cc1ccc2c(c1)C(=O)c1ccccc1C2=O [Compound 19, 2-{[2-amino-7-(2-naphthylmethyl)-6-oxo-6,7-dihydro-3H-purin-3-yl]methyl}anthra-9,10-quinone]"
4,19,"Nc1nc(=O)c2c(ncn2Cc2ccc3ccccc3c2)n1Cc1ccc(-c2nnn[nH]2)cc1 [Compound 27, 2-amino-7-(2-naphthylmethyl)-3-[4-(1H-tetraazol-5-yl)benzyl]-3,7-dihydro-6H-purin-6-one]"
5,21,"COC(=O)c1cccc(Cn2c(N)nc(=O)c3c2ncn3Cc2ccc3ccccc3c2)c1 [Compound 29, Methyl 3-{[2-amino-7-(2-naphthylmethyl)-6-oxo-6,7-dihydro-3H-purin-3-yl]methyl}benzoate]"
